Measured values reported in BindingDB's records for doi:10.1021/acs.jmedchem.9b00963 (Hong Kong Polytechnic University, 2019).

Assays:
[1] = Inhibition of BCRP in human MCF7/MX100 cells assessed as reversal of topotecan resistance after 5 days by MTS/PMS assay
[2] = Inhibition of BCRP (unknown origin) transfected in HEK293/R2 cells assessed as reversal of topotecan resistance after 5 days by MTS/PMS assay
[3] = Inhibition of P-gp (unknown origin) expressed in human LCC6MDR cells assessed as reversal of paclitaxel resistance after 5 days by MTS/PMS assay
[4] = Inhibition of P-gp (unknown origin) expressed in human LCC6MDR cells assessed as potentiation of mitoxantrone-induced cytotoxicity after 5 days by MTS/PMS assay
[5] = Inhibition of BCRP (unknown origin) expressed in human HEK293/R2 cells assessed as potentiation of mitoxantrone-induced cytotoxicity after 5 days by MTS/PMS assay
[6] = Inhibition of BCRP (unknown origin) transfected in human HEK293/R2 cells assessed as potentiation of topotecan-induced cytotoxicity measured as topotecan IC50 at 1 uM (Rvb = 531.5 +/- 180 nM)
[7] = Inhibition of MDR in human LCC6MDR cells assessed as reduction in cell viability after 5 days by MTS/PMS assay
[8] = Inhibition of MRP1 in human 2008/MRP1 cells assessed as reduction in cell viability after 5 days by MTS/PMS assay

| SMILES | EC50 [1] [nM] | EC50 [2] [nM] | EC50 [3] [nM] | EC50 [4] [nM] | EC50 [5] [nM] | IC50 [6] [nM] | IC50 [7] [nM] | IC50 [8] [nM] |
| --- | --- | --- | --- | --- | --- | --- | --- | --- |
| COC(=O)c1cccc(COc2c(-c3ccc(OCCOCCn4cc(-c5cccc(-c6cn(CCOCCOc7ccc(-c8oc9ccccc9c(=O)c8OCc8cccc(C(=O)OC)c8)cc7)nn6)c5)nn4)cc3)oc3ccccc3c2=O)c1 | 1.1 | 2.2 | > 1000 | > 2000 | 11 | 25 |  |  |
| COC(=O)c1cccc(COc2c(-c3ccc(OCCOCCn4cc(COCc5cn(CCOCCOc6ccc(-c7oc8ccccc8c(=O)c7OCc7cccc(C(=O)OC)c7)cc6)nn5)nn4)cc3)oc3ccccc3c2=O)c1 | 2.1 | 4.2 | > 1000 |  |  | 20 |  |  |
| COC(=O)c1cccc(COc2c(-c3ccc(OCCOCCn4cc(CN(Cc5ccccc5)Cc5cn(CCOCCOc6ccc(-c7oc8ccccc8c(=O)c7OCc7cccc(C(=O)OC)c7)cc6)nn5)nn4)cc3)oc3ccccc3c2=O)c1 | 3.3 | 5.3 | > 1000 |  |  | 15 |  |  |
| COC(=O)c1cccc(COc2c(-c3ccc(OCCOCCn4cc(CCCc5cn(CCOCCOc6ccc(-c7oc8ccccc8c(=O)c7OCc7cccc(C(=O)OC)c7)cc6)nn5)nn4)cc3)oc3ccccc3c2=O)c1 | 2.4 | 6.1 | > 1000 |  |  | 19 |  |  |
| O=c1cc(-c2ccc(OCCOCCOCCn3cc(CCCOc4ccc5c(=O)cc(-c6ccccc6)oc5c4)nn3)cc2)oc2ccccc12 | 203 | 52 | 384 |  |  |  |  |  |
| O=C1c2c(O)ccc(O)c2C(=O)c2c(NCCNCCO)ccc(NCCNCCO)c21 [SMR000058480] |  |  |  |  |  |  | 1500 | 28 |
| O=c1c(OCc2ccccc2)c(-c2ccc(OCCOCCOCCn3cc(CN(Cc4ccccc4)Cc4cn(CCOCCOCCOc5ccc(-c6oc7ccccc7c(=O)c6OCc6ccccc6)cc5)nn4)nn3)cc2)oc2ccccc12 | 26 | 36 | 560 |  |  |  |  |  |
| O=c1cc(-c2ccc(OCCCc3cn(CCOCCOc4ccc5c(=O)cc(-c6ccccc6)oc5c4)nn3)cc2)oc2cc(F)ccc12 | 7.9 | 6.4 | 69 |  |  |  |  |  |
| O=c1cc(-c2ccccc2)oc2cc(OCCCCc3cn(CCOCCOc4ccc5c(=O)cc(-c6ccccc6)oc5c4)nn3)ccc12 | 39 | 34 | 365 |  |  |  |  |  |
| Cc1ccc2oc(-c3ccc(OCCOCCOCCn4cc(CCCCOc5ccc6c(=O)cc(-c7ccccc7)oc6c5)nn4)cc3)cc(=O)c2c1 | 46 | 33 | 198 |  |  |  |  |  |
| O=c1cc(-c2ccc(OCCCc3cn(CCOCCOCCOc4ccc5c(=O)cc(-c6ccccc6)oc5c4)nn3)cc2)oc2cc(F)ccc12 | 27 | 28 | 89 |  |  |  |  |  |
| O=c1cc(-c2ccccc2)oc2cc(OCCOCCn3cc(COCCOc4ccc5c(=O)cc(-c6ccccc6)oc5c4)nn3)ccc12 | 308 | 195 | > 1000 |  |  |  |  |  |
| COC(=O)c1cccc(COc2c(-c3ccc(OCCOCCn4cc(CN5CCCN(Cc6cn(CCOCCOc7ccc(-c8oc9ccccc9c(=O)c8OCc8cccc(C(=O)OC)c8)cc7)nn6)CC5)nn4)cc3)oc3ccccc3c2=O)c1 | 55 | 108 | 573 |  |  |  |  |  |
| O=c1cc(-c2ccccc2)oc2cc(OCCOCCOCCn3cc(COCCOc4ccc5c(=O)cc(-c6ccccc6)oc5c4)nn3)ccc12 | 59 | 145 | 928 |  |  |  |  |  |
| COC(=O)c1cccc(COc2c(-c3ccc(OCCOCCn4cc(CN(Cc5cn(CCOCCOc6ccc(-c7oc8ccccc8c(=O)c7OCc7cccc(C(=O)OC)c7)cc6)nn5)c5ccccc5)nn4)cc3)oc3ccccc3c2=O)c1 | 2.2 | 6.8 | > 1000 |  |  |  |  |  |
| Cc1ccc2oc(-c3ccc(OCCCCc4cn(CCOCCOc5ccc(-c6cc(=O)c7ccccc7o6)cc5)nn4)cc3)cc(=O)c2c1 | 33 | 67 | 370 |  |  |  |  |  |
| COC(=O)c1cccc(COc2c(-c3ccc(OCCOCCOCCn4cc(CCCOc5ccc6c(=O)cc(-c7ccccc7)oc6c5)nn4)cc3)oc3ccccc3c2=O)c1 | 7 | 3.5 | 414 |  |  |  |  |  |
| COC(=O)c1cccc(COc2c(-c3ccc(OCCOCCn4cc(CN(Cc5ccncc5)Cc5cn(CCOCCOc6ccc(-c7oc8ccccc8c(=O)c7OCc7cccc(C(=O)OC)c7)cc6)nn5)nn4)cc3)oc3ccccc3c2=O)c1 | 25 | 49 | > 1000 |  |  |  |  |  |
| O=c1cc(-c2ccc(OCCOCCOCCn3cc(CCCOc4ccc(-c5cc(=O)c6ccc(F)cc6o5)cc4)nn3)cc2)oc2ccccc12 | 7.4 | 24 | 255 |  |  |  |  |  |

| SMILES | EC50 [1] [nM] | EC50 [2] [nM] | EC50 [3] [nM] | EC50 [4] [nM] | EC50 [5] [nM] | IC50 [6] [nM] | IC50 [7] [nM] | IC50 [8] [nM] |
| --- | --- | --- | --- | --- | --- | --- | --- | --- |
| O=c1cc(-c2ccccc2)oc2cc(OCCCCc3cn(CCOCCOCCOc4ccc5c(=O)cc(-c6ccccc6)oc5c4)nn3)ccc12 | 94 | 47 | 288 |  |  |  |  |  |
| COC(=O)c1cccc(COc2c(-c3ccc(OCCOCCOCCn4cc(CN(Cc5ccccc5)Cc5cn(CCOCCOCCOc6ccc(-c7oc8ccccc8c(=O)c7OCc7cccc(C(=O)OC)c7)cc6)nn5)nn4)cc3)oc3ccccc3c2=O)c1 | 4.3 | 3.3 | > 1000 |  |  |  |  |  |
| O=c1cc(-c2ccccc2)oc2cc(OCCN(Cc3ccccc3)Cc3cn(CCOCCOc4ccc(-c5cc(=O)c6cc(F)ccc6o5)cc4)nn3)ccc12 | 54 | 48 | 285 |  |  |  |  |  |
| Cc1ccc2oc(-c3ccc(OCCCCc4cn(CCOCCOc5ccc(-c6oc7ccccc7c(=O)c6OCc6ccccc6)cc5)nn4)cc3)cc(=O)c2c1 | 24 | 33 | 605 |  |  |  |  |  |
| Cc1ccc2oc(-c3ccc(OCCOCCOCCn4cc(CCCOc5ccc6c(=O)cc(-c7ccccc7)oc6c5)nn4)cc3)cc(=O)c2c1 | 185 | 35 | 350 |  |  |  |  |  |
| COC(=O)c1cccc(COc2c(-c3ccc(OCCOCCOCCn4cc(CN5CCN(Cc6cn(CCOCCOCCOc7ccc(-c8oc9ccccc9c(=O)c8OCc8cccc(C(=O)OC)c8)cc7)nn6)CC5)nn4)cc3)oc3ccccc3c2=O)c1 | 40 | 31 | > 1000 |  |  |  |  |  |
| O=c1cc(-c2ccc(OCCOCCn3cc(COCCOc4ccc5c(=O)cc(-c6ccccc6)oc5c4)nn3)cc2)oc2ccccc12 | 235 | 303 | 960 |  |  |  |  |  |
| O=c1cc(-c2ccc(OCCOCCOCCn3cc(COCCOc4ccc5c(=O)cc(-c6ccccc6)oc5c4)nn3)cc2)oc2ccccc12 | 340 | 303 | 963 |  |  |  |  |  |
| O=c1cc(-c2ccccc2)oc2cc(OCCCCc3cn(CCOCCOCCOc4ccc(-c5cc(=O)c6cc(F)ccc6o5)cc4)nn3)ccc12 | 31 | 44 | 325 |  |  |  |  |  |
| O=c1cc(-c2ccc(OCCOCCn3cc(CCCOc4ccc5c(=O)cc(-c6ccccc6)oc5c4)nn3)cc2)oc2ccccc12 | 30 | 67 | 300 |  |  |  |  |  |
| O=c1cc(-c2ccccc2)oc2cc(OCCn3cc(CN(Cc4ccccc4)Cc4cn(CCOc5ccc6c(=O)cc(-c7ccccc7)oc6c5)nn4)nn3)ccc12 | 485 | 243 | > 1000 |  |  |  |  |  |
| O=c1cc(-c2ccccc2)oc2cc(OCCOCCOCCn3cc(CN(Cc4ccccc4)Cc4cn(CCOCCOCCOc5ccc6c(=O)cc(-c7ccccc7)oc6c5)nn4)nn3)ccc12 | 250 | 83 | > 1000 |  |  |  |  |  |
| COC(=O)c1cccc(COc2c(-c3ccc(OCCOCCOCCn4cc(-c5ccc(-c6cn(CCOCCOCCOc7ccc(-c8oc9ccccc9c(=O)c8OCc8cccc(C(=O)OC)c8)cc7)nn6)cc5)nn4)cc3)oc3ccccc3c2=O)c1 | 14 | 2.4 | > 1000 |  |  |  |  |  |
| COc1ccc2c3c([nH]c2c1)[C@H](CC(C)C)N1C(=O)[C@H](CCC(=O)OC(C)(C)C)NC(=O)[C@@H]1C3 [Ko143] |  |  | 1060 | 943 |  |  |  |  |
| OCCOCCn1cc(CN(Cc2ccccc2)Cc2cn(CCOCCO)nn2)nn1 | > 1000 | > 1000 | > 1000 |  |  |  |  |  |
| Cc1ccc2oc(-c3ccc(OCCOCCOCCn4cc(CCCOc5ccc(-c6cc(=O)c7ccc(F)cc7o6)cc5)nn4)cc3)cc(=O)c2c1 | 20 | 14 | 219 |  |  |  |  |  |
| COC(=O)c1cccc(COc2c(-c3ccc(OCCOCCOCCn4cc(-c5cccc(-c6cn(CCOCCOCCOc7ccc(-c8oc9ccccc9c(=O)c8OCc8cccc(C(=O)OC)c8)cc7)nn6)c5)nn4)cc3)oc3ccccc3c2=O)c1 | 13 | 2.8 | > 1000 |  |  |  |  |  |
| O=c1cc(-c2ccccc2)oc2cc(OCCOCCn3cc(CN(Cc4ccccc4)Cc4cn(CCOCCOc5ccc6c(=O)cc(-c7ccccc7)oc6c5)nn4)nn3)ccc12 | 278 | 153 | > 1000 |  |  |  |  |  |
| O=c1cc(-c2ccccc2)oc2cc(OCCOCc3cn(CCOCCOc4ccc(-c5cc(=O)c6cc(F)ccc6o5)cc4)nn3)ccc12 | 195 | 285 | > 1000 |  |  |  |  |  |
